Test results reported in patent US20200316064A1, “CYCLIN-DEPENDENT KINASE 2 BIOMARKERS AND USES THEREOF” (Incyte Corporation, priority 2019, published 2020).
pIC50: −log10 of the molar value.

Each compound was assayed against T1, CDK2/Cyclin E1 (Homo sapiens, UniProt P24941) (assay: CDK2/Cyclin E1 HTRF enzyme activity assay (Example A)). Conditions: 1 mM ATP.
T1 construct: utilize full-length human CDK2 co-expressed as N-terminal GST-tagged protein; GST (N); purchased Carna 04-165; host or cells: baculovirus expression system
Format: biochemical
Method: CDK2/Cyclin E1 enzyme activity assays utilize full-length human CDK2 co-expressed as N-terminal GST-tagged protein with FLAG-Cyclin E1 in a baculovirus expression system (Carna Product Number 04-165). Assays are conducted in white 384-well polystyrene plates in a final reaction volume of 8 μL. CDK2/Cyclin E1 (0.25 nM) is incubated with compounds (40 nL serially diluted in DMSO) in the presence of ATP (50 μM or 1 mM) and 50 nM ULight™-labeled eIF4E-binding protein 1 (THR37/46) peptide (PerkinElmer) in assay buffer (containing 50 mM HEPES pH 7.5, 1 mM EGTA, 10 mM MgC2, 2 mM DTT, 0.05 mg/mL BSA, and 0.01% Tween 20) for 60 minutes at room temperature. The reactions are stopped by the addition of EDTA and Europium-labeled anti-phospho-4E-BP1 antibody (PerkinElmer), for a final concentration of 15 mM and 1.5 nM, respectively. HTRF signals are read after 1 hour at room temperature on a PHERAstar FS plate reader (BMG Labtech). Data is analyzed with IDBS XLFit and GraphPad Prism 5.0 software using a three or four parameter dose response curve to determine IC50 for each compound.
For CC1CCCC1N1C(=O)C2(CC2)c2cnc(NC3CCN(S(C)(=O)=O)CC3)nc21 (mixture of isomers) [Example B8, 7′-(2-methylcyclopentyl)-2′-((1-(methylsulfonyl)piperidin-4-yl)amino)spiro[cyclopropane-1,5′-pyrrolo[2,3-d]pyrimidin]-6′(7′H)-one], the pIC50 was ≥ 7.30. With CCC(C(F)F)N1C(=O)C(C)(C)Cc2cnc(NC3CCN(S(C)(=O)=O)CC3)nc21 (racemic) [Example A4, 8-(1,1-difluorobutane-2-yl)-6,6-dimethyl-2-((1-(methylsulfonyl)piperidin-4-yl)amino)-5,8-dihydropyrido[2,3-d]pyrimidin-7(6H)-one] the pIC50 was 7.00 to 7.30. With CC1(C)Cc2cnc(NC3CCN(S(C)(=O)=O)CC3)nc2N(C2CCOC2)C1=O (racemic) [Example A6, 6,6-dimethyl-2-((1-(methylsulfonyl)piperidin-4-yl)amino)-8-(tetrahydrofuran-3-yl)-5,8-dihydropyrido[2,3-d]pyrimidin-7(6H)-one] the pIC50 was 6.30 to 7.00. In the case of CCC(C(F)F)N1C(=O)C2(CC2)c2cnc(NC3CCN(S(C)(=O)=O)CC3)nc21 (racemic) [Example B10, 7′-(1,1-difluorobutane-2-yl)-2′-((1-(methylsulfonyl)piperidin-4-yl)amino)spiro[cyclopropane-1,5′-pyrrolo[2,3-d]pyrimidin]-6′(7′H)-one], the pIC50 was ≥ 7.30. In the case of C[C@@]1(O)CCC[C@H]1N1C(=O)C2(CC2)c2cnc(NC3CCN(S(=O)(=O)c4ncc[nH]4)CC3)nc21 (relative stereo) [Example B17, 2′-((1-((1H-imidazol-2-yl)sulfonyl)piperidin-4-yl)amino)-7′-((trans)-2-hydroxy-2-methylcyclopentyl)spiro[cyclopropane-1,5′-pyrrolo[2,3-d]pyrimidin]-6′(7′H)-one], the pIC50 was ≥ 7.30. CC1(C)Cc2cnc(Nc3ccc(S(N)(=O)=O)cc3)nc2N(C2CCCC2)C1=O [Example A1, 4-((8-cyclopentyl-6,6-dimethyl-7-oxo-5,6,7,8-tetrahydropyrido[2,3-d]pyrimidin-2-yl)amino)benzenesulfonamide] was tested, and the pIC50 was ≥ 7.30. CC1(C)Cc2cnc(NC3CCN(S(C)(=O)=O)CC3)nc2N(C2CCCC2)C1=O [Example A2, 8-cyclopentyl-6,6-dimethyl-2-((1-(methylsulfonyl)piperidin-4-yl)amino)-5,8-dihydropyrido[2,3-d]pyrimidin-7(6H)-one] was tested, and the pIC50 was ≥ 7.30. CC1(C)Cc2cnc(NC3CCN(S(C)(=O)=O)CC3)nc2N(c2ccccc2)C1=O [Example A3, 6,6-dimethyl-2-((1-(methylsulfonyl)piperidin-4-yl)amino)-8-phenyl-5,8-dihydropyrido[2,3-d]pyrimidin-7(6H)-one] was tested, and the pIC50 was 6.30 to 7.00. For Cn1nccc1CN1C(=O)C(C)(C)Cc2cnc(NC3CCN(S(C)(=O)=O)CC3)nc21 [Example A5, 6,6-dimethyl-8-((1-methyl-1H-pyrazol-5-yl)methyl)-2-((1-(methylsulfonyl)piperidin-4-yl)amino)-5,8-dihydropyrido[2,3-d]pyrimidin-7(6H)-one], the pIC50 was 6.30 to 7.00. In the case of CC1CC(Nc2ncc3c(n2)N(C2CCCC2)C(=O)C32CC2)CCN1S(C)(=O)=O (stereo not drawn) [Example B1, 7′-cyclopentyl-2′-((2-methyl-1-(methylsulfonyl)piperidin-4-yl)amino)spiro[cyclopropane-1,5′-pyrrolo[2,3-d]pyrimidin]-6′(7′H)-one], the pIC50 was 6.30 to 7.00. CS(=O)(=O)N1CCC(Nc2ncc3c(n2)N(C2CCCC2)C(=O)C32CC2)CC1 [Example B2, 7′-cyclopentyl-2′-((1-(methylsulfonyl)piperidin-4-yl)amino)spiro[cyclopropane-1,5′-pyrrolo[2,3-d]pyrimidin]-6′(7′H)-one] showed a pIC50 of 6.30 to 7.00. O=C1N(C2CCCC2)c2nc(NC3CCN(S(=O)(=O)C4CC4)CC3)ncc2C12CC2 [Example B3, 7′-cyclopentyl-2′-((1-(cyclopropylsulfonyl)piperidin-4-yl)amino)spiro[cyclopropane-1,5′-pyrrolo[2,3-d]pyrimidin]-6′(7′H)-one] was tested, and the pIC50 was ≥ 7.30. With O=C1N(C2CCCC2)c2nc(NC3CCN(S(=O)(=O)C4CCOCC4)CC3)ncc2C12CC2 [Example B4, 7′-cyclopentyl-2′-((1-((tetrahydro-2H-pyran-4-yl)sulfonyl)piperidin-4-yl)amino)spiro[cyclopropane-1,5′-pyrrolo[2,3-d]pyrimidin]-6′(7′H)-one] the pIC50 was 6.30 to 7.00. O=C1N(C2CCCC2)c2nc(NC3CCN(S(=O)(=O)c4cccnc4)CC3)ncc2C12CC2 [Example B5, 7′-cyclopentyl-2′-((1-(pyridin-3-ylsulfonyl)piperidin-4-yl)amino)spiro[cyclopropane-1,5′-pyrrolo[2,3-d]pyrimidin]-6′(7′H)-one] was tested, and the pIC50 was ≥ 7.30. O=C1N(C2CCCC2)c2nc(NC3CCN(S(=O)(=O)c4ccc(Cl)cc4)CC3)ncc2C12CC2 [Example B6, 2′-((1-((4-chlorophenyl)sulfonyl)piperidin-4-yl)amino)-7′-cyclopentylspiro[cyclopropane-1,5′-pyrrolo[2,3-d]pyrimidin]-6′(7′H)-one] gave a pIC50 of 7.00 to 7.30. Cn1cc(S(=O)(=O)N2CCC(Nc3ncc4c(n3)N(C3CCCC3)C(=O)C43CC3)CC2)cn1 [Example B7, 7′-cyclopentyl-2′-((1-((1-methyl-1H-pyrazol-4-yl)sulfonyl)piperidin-4-yl)amino)spiro[cyclopropane-1,5′-pyrrolo[2,3-d]pyrimidin]-6′(7′H)-one] was tested, and the pIC50 was ≥ 7.30. Work on Cc1ccccc1N1C(=O)C2(CC2)c2cnc(NC3CCN(S(C)(=O)=O)CC3)nc21 [Example B9, 2′-((1-(methylsulfonyl)piperidin-4-yl)amino)-7′-(o-tolyl)spiro[cyclopropane-1,5′-pyrrolo[2,3-d]pyrimidin]-6′(7′H)-one] yielded a pIC50 of 6.30 to 7.00. With Cc1c(N2C(=O)C3(CC3)c3cnc(NC4CCN(S(C)(=O)=O)CC4)nc32)cnn1C [Example B11, 7′-(1,5-dimethyl-1H-pyrazol-4-yl)-2′-((1-(methylsulfonyl)piperidin-4-yl)amino)spiro[cyclopropane-1,5′-pyrrolo[2,3-d]pyrimidin]-6′(7H)-one] the pIC50 was 7.00 to 7.30. Cn1cc(S(=O)(=O)N2CCC(Nc3ncc4c(n3)N([C@@H]3CCC[C@@H](O)C3)C(=O)C43CC3)CC2)cn1 [Example B12, 7′-((1R,3R)-3-hydroxycyclohexyl)-2′-((1-((1-methyl-1H-pyrazol-4-yl)sulfonyl)piperidin-4-yl)amino)spiro[cyclopropane-1,5′-pyrrolo[2,3-d]pyrimidin]-6′(7′H)-one] was tested, and the pIC50 was ≥ 7.30. O=C1N([C@@H]2CCC[C@@H](O)C2)c2nc(NC3CCN(S(=O)(=O)c4cccc(N5CCC5)n4)CC3)ncc2C12CC2 [Example B13, 2′-((1-((6-(azetidin-1-yl)pyridin-2-yl)sulfonyl)piperidin-4-yl)amino)-7′-((1R,3R)-3-hydroxycyclohexyl)spiro[cyclopropane-1,5′-pyrrolo[2,3-d]pyrimidin]-6′(7′H)-one] was tested, and the pIC50 was ≥ 7.30. In the case of C[C@@H](C1CC1)N1C(=O)C2(CC2)c2cnc(NC3CCN(S(=O)(=O)c4ncc[nH]4)CC3)nc21 [Example B14, (S)-2′-((1-((1H-imidazol-2-yl)sulfonyl)piperidin-4-yl)amino)-7′-(1-cyclopropylethyl)spiro[cyclopropane-1,5′-pyrrolo[2,3-d]pyrimidin]-6′(7′H)-one], the pIC50 was ≥ 7.30.
